Where two headings read alike, the source gives them in different places.
Experiments:
[1] = target: T1, human serotonin 5-HT2B receptor (Homo sapiens, UniProt P41595); experiment: Stimulating activities of human serotonin 5-HT2B receptor, intracellular calcium in forced expression HEK293 cells; assay type: cell-based; conditions: intracellular calcium concentration, mean value (n=2)
T1 construct: expressed in transfected cells; host or cells: HEK293 (transient transfection)
Experimental: Identification Test of Stimulating Activities on Human Serotonin 5-HT2B Receptor
Mostly confluent HEK293 cells were washed with PBS, followed by exfoliation with 0.05% trypsin-EDTA and the cells were suspended in D-MEM liquid medium (phenol red-free, low glucose, pyruvic acid were contained) containing fetal bovine serum (final concentration: 10%) and GlutaMax (registered mark) I (final concentration: 2 mM). The suspension was scattered at 5×10^4 cells/100 μL/well on poly-D-lysine-coated 96-well microplate (BD BioCoat (registered mark)). The scattered cells were cultured in 5% CO2 incubator at 37° C. Human serotonin 5-HT2B receptor expression plasmid was transfected in that cells according to the procedure seeing below.
Human serotonin 5-HT2B receptor expression plasmid and Lipofectamine (registered mark) 2000 (Invitrogen) were diluted to 0.008 g/L and 0.016 g/L each other with OPTI-MEM (registered mark) I Reduced-Serum Medium and incubated at room temperature. After incubation, the human serotonin 5-HT2B receptor expression plasmid-diluted liquid and Lipofectamine (registered mark) 2000-diluted liquid were mixed at an equal volume and incubated at room temperature to form a complex. The complex was dispensed at 50 μL/well on the cells prepared above. The cells were incubated in 5% CO2 incubator at 37° C. for 2 days. After incubation, the cells were used as human serotonin 5-HT2B receptor forced expression cells for measurement of intracellular calcium concentration.
The stimulating activities of human serotonin 5-HT2B receptor was determined by measuring of intracellular calcium concentration. The 30 mM dimethyl sulfoxide (DMSO) solution contained test compounds or serotonin hydrochloride (Sigma) as positive control, was diluted with assay buffer ((HBSS), 20 mM HEPES, 1.3 mM calcium chloride, 0.5 mM magnesium chloride and 0.4 mM magnesium sulfate were contained, pH7.4) to appropriate concentration.
The forced expression cells were washed with assay buffer, and 100 μL/well of fluorescent calcium indicator (Fluo-4 NW Calcium Assay Kit) was added and incubated in 5% CO2 incubator at 37° C. After incubation, 50 μL/well of each test compound was added, and the concentration of intracellular calcium was measured as fluorescent signal with FlexStation (registered mark) II (Molecular Devices). The data was analyzed by nonlinear regression and sigmoidal dose-response curve fitting using GraphPad PRISM 4.0, and values of EC50 (concentration of the compound producing half the maximal effect of the compound) were calculated. The data was presented as mean value (n=2).

[2] = target: T2, human dopamine D2 receptor (Homo sapiens, UniProt P14416); experiment: Stimulating activities of human dopamine D2 receptor, [35S]GTPγS binding to hD2R#7 (HEK293) membrane homogenates; assay type: biochemical
T2 construct: expressed in transfected cells
Experimental: Identification Test of Stimulating Activities on Human Dopamine D2 Receptor
The cells, which were grown to confluence in 150 mm dishes (IWAKI), were harvested with isotonic buffer (50 mM Tris (Sigma), 2 mM ethylenediamine-tetraacetic acid (Invitrogen), and 125 mM sodium chloride (Wako Pure Chemicals), pH 7.4) and centrifuged at 1880×g and 4° C. for 10 minutes, and the cell pellets were then suspended in isotonic buffer. After being subjected to one cycle of freezing and thawing, the cells were centrifuged at 1880×g and 4° C. for 10 minutes, and the cell pellets were suspended in isotonic buffer. The cells were centrifuged at 1880×g and 4° C. for 10 minutes, and the cell pellets were suspended in isotonic buffer and homogenate buffer (10 mM sodium bicarbonate (Nacalai) and 5 mM ethylenediamine-tetraacetic acid, pH 7.5). The volume ratio of isotonic-to-homogenate buffer was 2. The cells were sonicated and centrifuged at 1880×g and 4° C. for 10 minutes, and the supernatants were ultracentrifuged at 80000×g and 4° C. for 30 minutes. The final cell pellets were suspended in homogenate buffer containing protease inhibitor cocktail (Nacalai) and stored at −80° C. until use. The protein concentration was determined using BCA Protein Assay Kit (Pierce) in accordance with the manufacturer's instructions.
The stimulating activities of human dopamine D2 receptor was determined by measuring the binding potential of [^35S]-guanosine 5′-[gamma-thio]triphosphate ([^35S]GTPγS, PerkinElmer) according to the method described by Newman-Tancredi A. et al. (Naunyn-Schmiedeberg's Arch Pharmacol, 1999, vol. 359, pp. 447-453) with a minor modification. Test compounds and dopamine hydrochloride (Fluka) as positive control were dissolved in dimethyl sulfoxide (CARLBIOCHEM), resulting in 30 mM. The both compounds were diluted with assay buffer (50 mM Tris, 100 mM sodium chloride, 5 mM magnesium chloride (Nacalai), 1 mM ethylenediamine-tetraacetic acid, 1 mM dithiothreitol (Wako Pure Chemicals), 10 μM guanosine diphosphate (Wako Pure Chemicals) and 0.5% bovine serum albumin (Sigma), pH 7.4) to a final concentration of 100 pM (only test compounds), 1 nM, 10 nM, 100 nM, 1 μM, 10 μM and 100 μM (only dopamine hydrochloride). The above membrane homogenates and [^35S]GTPγS were diluted with assay buffer to a final concentration of 0.06 mg/mL and 0.6 nM, respectively. The serial diluted compounds (50 μL), the diluted membrane homogenates (50 μL) and the diluted [^35S]GTPγS (50 μL) were mixed on multi-screen 96-well plate (Millipore) and shaken lightly at room temperature for 60 minutes. The reaction was terminated by vacuum filtration with three times washes of ice-cold wash buffer (50 mM Tris, 100 mM sodium chloride, 5 mM magnesium chloride, and 1 mM ethylenediamine-tetraacetic acid, pH 7.4). After drying the bottoms of the plate at 60° C., MicroScinti-40 (PerkinElmer) (30 μL) was added in the plate. The tops of the plate were sealed by TopSeal-A (PerkinElmer), and the radioactivity was determined in a TopCount NXT (registered mark)(PerkinElmer) after shaking lightly for 5-10 minutes. The data was analyzed by nonlinear regression and sigmoidal dose-response curve fitting using GraphPad PRISM 4.0 (GraphPad Software), and values of EC50 (concentration of the compound producing half the maximal effect of the compound) were calculated. The data was presented as mean value (n=2).

[3] = tested on: unilateral 6-hydroxydopamine-lesioned hemi-Parkisonian rats; experiment: Contralateral rotational behavior in unilateral 6-hydroxydopamine-lesioned hemi-parkinsonian rats; assay type: in vivo, rat; conditions: orally 10 mg/kg, mean value; for Total number of rotations: contralateral rotations up to 24 hours after administration; for Duration: measured up to 24 hours after administration, duration of rotational response
Experimental: 6-OHDA was dissolved at 2 mg/mL in a physiolosical saline solution containing 0.2% L-ascorbic acid. Desipramine was dissolved at 10 mg/mL in a physiolosical saline solution in a hot-water bath. Apomorphine was dissolved at 0.1 mg/mL in a physiolosical saline solution. Ropinirole was dissolved in distilled water. Test compounds were dissolved in a solution containing 2% DMA, 100 or 200 mol % hydrochloric acid, and 98% of a 0.5% methyl cellulose solution. […] (Eur J Pharmacol, 2000, vol. 408, P. 249-255) with a minor modification. Male Sprague-Dawley rats (6-weeks-old, Charles River Laboratories Japan Inc.) were anaesthetized with intraperitoneal somnopentyl (45 mg/kg) injection and placed in a stereotaxic frame (Narishige). In order to prevent 6-OHDA-induced damage of noradrenergic neurons, desipramine (25 mg/kg) was intraperitoneally injected 30 minutes before the 6-OHDA injection. After the bregma identification via a middle calvarial incision, the skull was drilled using a dental drill at the site of 6-OHDA injection. The lesion was made by injecting 6-OHDA (8 μg in 4 μL at a speed of 1 μL/minute) unilaterally into the left medial forebrain bundle by using a injection cannula (30 gauge needle) connected to a microsyringe (Hamilton) (the lesion coordinates; A/P −2.5 mm, L/M −1.8 mm, and V/D −8.0 mm, from the bregma point and surface of the skull). The cannula was carefully removed from the animal after keeping placed on the lesion site for 5 minutes. The skull was filled its hole with dental cement, disinfected, and the scalp incision was surgically sutured. Animals recovered from anesthesia were housed as usual until the day of the experiment. Three weeks after the lesion, rats were tested on the basis of their contralateral rotational behavior (single rotation was defined as a 360° turn) in response to 0.1 mg/kg apomorphine given subcutaneously. For behavioral observation, rats were placed in plastic cylinders of a diameter of 30 cm, and its contralateral rotational behaviors were videotaped and quantified by rat-rotation auto counting system R-RACS (Kissei Wellcom). On the experimental day, animals were fasted overnight, and test compounds were orally administrated at doses of 10 mg/kg. The drug potency was measured until up to 24 hours after administration as the number of contralateral rotation. […] Total number of rotations and the duration of the response in experimental period were presented as mean value. As comparative example, ropinirole as non-ergot dopamine D2 receptor agonist, was examined in a similar fashion.

[4] = [35S]GTPγS binding, membrane homogenates, mean value (n=2), read-out: EC50

T2 sequence (P14416 whole entry): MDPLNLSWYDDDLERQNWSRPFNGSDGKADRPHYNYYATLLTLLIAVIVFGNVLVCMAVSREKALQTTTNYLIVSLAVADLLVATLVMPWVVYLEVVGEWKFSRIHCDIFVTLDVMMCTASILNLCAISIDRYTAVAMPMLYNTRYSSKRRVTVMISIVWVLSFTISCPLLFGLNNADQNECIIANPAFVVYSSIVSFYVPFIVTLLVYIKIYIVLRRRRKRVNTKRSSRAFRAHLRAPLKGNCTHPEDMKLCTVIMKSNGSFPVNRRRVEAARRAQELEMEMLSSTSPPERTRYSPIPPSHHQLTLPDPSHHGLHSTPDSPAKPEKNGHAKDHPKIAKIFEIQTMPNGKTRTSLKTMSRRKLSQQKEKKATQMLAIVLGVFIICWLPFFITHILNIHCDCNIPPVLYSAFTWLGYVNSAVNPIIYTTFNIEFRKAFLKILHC
T1 sequence (P41595 whole entry): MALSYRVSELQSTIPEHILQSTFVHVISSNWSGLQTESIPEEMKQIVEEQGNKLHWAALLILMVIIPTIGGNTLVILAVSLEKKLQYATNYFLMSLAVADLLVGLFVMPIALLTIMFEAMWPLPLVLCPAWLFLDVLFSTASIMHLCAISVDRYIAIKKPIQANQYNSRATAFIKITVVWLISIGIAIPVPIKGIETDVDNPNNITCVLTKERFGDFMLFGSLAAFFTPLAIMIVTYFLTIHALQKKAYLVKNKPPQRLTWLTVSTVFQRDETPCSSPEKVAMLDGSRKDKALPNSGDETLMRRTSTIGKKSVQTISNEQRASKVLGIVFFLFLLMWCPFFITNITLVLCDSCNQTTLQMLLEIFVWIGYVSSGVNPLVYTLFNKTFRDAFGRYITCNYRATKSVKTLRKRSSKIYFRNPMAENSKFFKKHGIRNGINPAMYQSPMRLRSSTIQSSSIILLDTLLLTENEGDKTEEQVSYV

| SMILES | EC50 [1] | EC50 [2, 4] | Total number of rotations [3] | Duration [3] | EC50 [2] |
| --- | --- | --- | --- | --- | --- |
| CCCN1C[C@@H](NC(=O)N(C)CCc2ccccc2)C[C@@H]2Cc3nc(N)ncc3C[C@H]21 (relative stereo) [Compound 1-11] | > 10000 nM | 19 nM | – | – | – |
| CCCN1C[C@@H](NC(=O)N(C)CCOC)C[C@@H]2Cc3nc(N)ncc3C[C@H]21 (relative stereo) [Compound 1-12] | > 10000 nM | 43 nM | – | – | – |
| CCCN1C[C@@H](NC(=O)NC)C[C@@H]2Cc3nc(N)ncc3C[C@H]21 (relative stereo) [Compound 1-13] | > 10000 nM | 161 nM | – | – | – |
| CCCN1C[C@@H](NC(=O)N(C)C2CC2)C[C@@H]2Cc3nc(N)ncc3C[C@H]21 (relative stereo) [Compound 1-16] | > 10000 nM | 93 nM | – | – | – |
| CCCN1C[C@@H](NC(=O)N(CCc2ccccc2)CCN(C)C)C[C@@H]2Cc3nc(N)ncc3C[C@H]21 (relative stereo) [Compound 1-23, 3-[(5aR*,8S*,9aR*)-2-amino-6-propyl-5,5a,6,7,8,9,9a,10-octahydropyrido[2,3-g]quinazolin-8-yl]-1-[2-(dimethylamino)ethyl]-1-(2-phenylethyl)urea] | > 10000 nM | 223 nM | 9184.0 | 870.0 minuets | – |
| CCCN1C[C@@H](NC(=O)N(CC)CCN2CCCCC2)C[C@@H]2Cc3nc(N)ncc3C[C@H]21 (relative stereo) [Compound 1-25, 3-[(5aR*,8S*,9aR*)-2-amino-6-propyl-5,5a,6,7,8,9,9a,10-octahydropyrido[2,3-g]quinazolin-8-yl]-1-ethyl-1-[2-(piperidin-1-yl)ethylurea] | > 10000 nM | 126 nM | 5025.0 | 621.3 minuets | – |
| CCCN1C[C@@H](NC(=O)N(CC)CCN2CCc3ccccc3C2)C[C@@H]2Cc3nc(N)ncc3C[C@H]21 (relative stereo) [Compound 1-33] | > 10000 nM | 93 nM | – | – | – |
| CCCN1C[C@@H](NC(=O)N2CCCCC2)C[C@@H]2Cc3nc(N)ncc3C[C@H]21 (relative stereo) [Compound 1-34] | > 10000 nM | 63 nM | – | – | – |
| CCCN1C[C@@H](NC(=O)N(C)CCc2ccncc2)C[C@@H]2Cc3nc(N)ncc3C[C@H]21 (relative stereo) [Compound 1-36] | > 10000 nM | 34 nM | – | – | – |
| CCCN1C[C@@H](NC(=O)N2CCc3ccccc3C2)C[C@@H]2Cc3nc(N)ncc3C[C@H]21 (relative stereo) [Compound 1-37] | > 10000 nM | 10 nM | – | – | – |
| CCCN1C[C@@H](NC(=O)N(C)CCN(C)c2ccccc2)C[C@@H]2Cc3nc(N)ncc3C[C@H]21 (relative stereo) [Compound 1-39] | > 10000 nM | 39 nM | – | – | – |
| CCCN1C[C@@H](NC(=O)N(CC)CCN(C)CCOC)C[C@@H]2Cc3nc(N)ncc3C[C@H]21 (relative stereo) [Compound 1-41] | > 10000 nM | 116 nM | – | – | – |
| CCCN1C[C@@H](CO)C[C@@H]2Cc3nc(N)ncc3C[C@H]21 (relative stereo) [compound 1, [(5aR*,8S*,9aR*)-2-amino-6-propyl-5,5a,6,7,8,9,9a,10-octahydropyrido[2,3-g]quinazolin-8-yl]methanol, reference compound] | – | 2900 nM | – | – | – |
| CCCN1C[C@@H](NC(=O)N(CC)CCN(C)C)C[C@@H]2Cc3nc(N)ncc3C[C@H]21 [Compound 1-1, 3-[(5aR,8S,9aR)-2-Amino-6-propyl-5,5a,6,7,8,9,9a,10-octahydropyrido[2,3-g]quinazolin-8-yl]-1-[2-(dimethylamino)ethyl]-1-ethylurea] | > 10000 nM | 64 nM | 5038.5 | 541.3 minuets | – |
| CCCN1C[C@@H](NC(=O)N(CCN(C)C)CC(C)C)C[C@@H]2Cc3nc(N)ncc3C[C@H]21 [Compound 1-3, 3-[(5aR,8S,9aR)-2-amino-6-propyl-5,5a,6,7,8,9,9a,10-octahydropyrido[2,3-g]quinazolin-8-yl]-1-[2-(dimethylamino)ethyl]-1-(2-methylpropyl)urea] | – | – | 3610.5 | 387.5 minuets | – |
| CCCN1C[C@@H](NC(=O)N(C)C)C[C@@H]2Cc3nc(N)ncc3C[C@H]21 [Compound 1-5] | – | – | – | – | 9 nM |
| CCCN(CCC)CCc1cccc2c1CC(=O)N2 [Ropinirole, ropinirole, reference compound] | – | – | 276.3 | 61.3 minuets | – |

From patent publication US9585885B2, “Substituted pyrido[2,3-g]quinazolines as dopamine D2 receptor agonists” (KISSEI PHARMACEUTICAL CO., LTD., priority 2012, dated 2017)
